Test results as given in US20120178738A1, “DIBENZO [B,F] [1,4]OXAZAPINE COMPOUNDS” (ARYX THERAPEUTICS, INC., priority 2007, published 2012).

How the values were obtained:
[1] = tested on: locomotor activity in rats; assay: Spontaneous locomotor activity (open field); type: in vivo; settings: clozapine comparator, dose not given
Procedure: One of the common side effects of many antipsychotic drugs is sedation. It has been shown that agents that have sedative actions in man have the same effect in animals. The purpose of these studies was to evaluate the effect of test compounds on the locomotor activity in rats, which is used to assess the sedative properties of antipsychotic compounds.
The animals (male Sprague Dawley rats, about 300-450 g; Charles River) were assessed for ambulation for 30 minutes before and for 30 min after vehicle or test compounds. […] Locomotor activity is quantified by the number of photobeams crossed by the animal over several 3×10 min intervals.

[2] = tested on: catalepsy in mice; assay: Catalepsy mouse model; type: in vivo; settings: highest dose 30 mg/kg
Procedure: A catalepsy mouse model was used to investigate a potential side effect of antipsychotic agents.
The catalepsy methodology used herein has been adapted from Tada, M. et al. ((2004). Psychopharmacol., 176, 94-100) as well as Wang et al. ((2000). J. Neurosci., 20, 8305-8314).
The animals (Swiss Webster, female, about 20 g; Charles River) were administered compounds of the invention (1 μg/kg-30 mg/kg ip). Twenty seven minutes after test compound injection, the mice's forepaws were placed on a horizontal steel bar (diameter 0.2 cm), elevated 3-5 cm above the tabletop and the time taken for the animals to remove both paws was recorded for up to 2 min.

[3] = target: T1, human H1 receptors (Homo sapiens, UniProt P35367); assay: hH1 receptor radioligand binding ([3H]Pyrilamine); settings: pKi reported on a scale of 1 through 5
T1 construct: expressed in transfected cells; host or cells: Chinese hamster ovary cells (membranes)
Summary of the method: (§1)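 Read-out was radioligand retained after filtration, corrected for nonspecific binding determined with a blocking compound. Receptor-containing membranes or tissues had been incubated at equilibrium with one radioligand concentration and varying unlabelled compound.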

[4] = target: T2, human 5HT7 receptors (Homo sapiens, UniProt P34969); assay: h5-HT7 receptor radioligand binding ([3H]5-CT)
T2 construct: expressed in transfected cells; host or cells: Chinese hamster ovary cells (membranes)
Summary of the method: as §1

[5] = target: T3, human M3 receptors (Homo sapiens, UniProt P20309); assay: hM3 receptor radioligand binding ([3H]NMS)
T3 construct: expressed in transfected cells; host or cells: Chinese hamster ovary cells (membranes)
Summary of the method: as §1

[6] = target: T4, human D2L dopamine receptors (Homo sapiens, UniProt P14416); assay: hD2L receptor radioligand binding ([3H]spiperone)
T4 construct: expressed in transfected cells; host or cells: insect Sf9 cells (membranes)
Summary of the method: as §1

[7] = target: T5, human M1 receptors (Homo sapiens, UniProt P11229); assay: hM1 receptor radioligand binding ([3H]NMS); settings: pKi reported on a scale of 1 through 5
T5 construct: expressed in transfected cells; host or cells: Chinese hamster ovary cells (membranes)
T5 sequence (P11229 1-460): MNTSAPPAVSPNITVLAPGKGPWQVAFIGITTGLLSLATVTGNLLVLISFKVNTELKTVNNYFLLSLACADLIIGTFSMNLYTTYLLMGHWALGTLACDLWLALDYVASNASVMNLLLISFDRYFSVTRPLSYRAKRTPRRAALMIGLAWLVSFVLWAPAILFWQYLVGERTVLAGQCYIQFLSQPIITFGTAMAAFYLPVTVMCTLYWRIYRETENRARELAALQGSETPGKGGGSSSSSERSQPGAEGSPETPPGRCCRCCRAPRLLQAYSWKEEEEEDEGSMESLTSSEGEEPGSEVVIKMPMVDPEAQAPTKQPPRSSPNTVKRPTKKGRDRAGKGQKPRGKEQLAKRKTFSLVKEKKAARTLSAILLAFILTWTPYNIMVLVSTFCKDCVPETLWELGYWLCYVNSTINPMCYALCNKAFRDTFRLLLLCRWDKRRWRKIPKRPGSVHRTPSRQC
Summary of the method: as §1

[8] = target: T6, human D2s dopamine receptors (Homo sapiens, UniProt P14416); assay: hD2S receptor radioligand binding ([3H]spiperone); settings: pKi reported on a scale of 1 through 5
T6 construct: expressed in transfected cells; host or cells: Chinese hamster ovary cells (membranes)
Summary of the method: as §1

[9] = target: T7, human 5HT2C receptors (Homo sapiens, UniProt P28335); assay: h5-HT2C receptor radioligand binding ([3H]Mesulergine); settings: pKi reported on a scale of 1 through 5
T7 construct: expressed in transfected cells; host or cells: human embryo kidney cells (membranes)
T7 sequence (P28335 33-458): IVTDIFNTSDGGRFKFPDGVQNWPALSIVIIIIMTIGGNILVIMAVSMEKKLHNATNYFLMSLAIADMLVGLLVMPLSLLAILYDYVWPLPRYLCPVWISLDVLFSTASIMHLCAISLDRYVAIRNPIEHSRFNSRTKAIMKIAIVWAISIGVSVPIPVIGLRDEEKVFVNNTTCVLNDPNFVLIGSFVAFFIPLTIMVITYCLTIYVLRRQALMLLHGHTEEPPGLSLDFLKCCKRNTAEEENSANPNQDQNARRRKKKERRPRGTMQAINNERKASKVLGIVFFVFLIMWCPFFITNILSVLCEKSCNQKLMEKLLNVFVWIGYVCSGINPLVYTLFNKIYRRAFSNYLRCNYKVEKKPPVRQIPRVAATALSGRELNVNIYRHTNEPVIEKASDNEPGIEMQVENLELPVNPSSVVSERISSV
Summary of the method: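 Test compound affinity was derived from concentration-dependent displacement of fixed [3H]mesulergine at equilibrium, after subtracting nonspecific binding measured with a reference blocker. Bound and free radioligand were separated by filtration of tissue or plasma-membrane preparations.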

[10] = target: T8, human 5HT1A receptors (Homo sapiens, UniProt P08908); assay: h5-HT1A receptor radioligand binding ([3H]8OH-DPAT); settings: pKi reported on a scale of 1 through 5
T8 construct: expressed in transfected cells; host or cells: Chinese hamster ovary cells (membranes)
T8 sequence (P08908 1-422): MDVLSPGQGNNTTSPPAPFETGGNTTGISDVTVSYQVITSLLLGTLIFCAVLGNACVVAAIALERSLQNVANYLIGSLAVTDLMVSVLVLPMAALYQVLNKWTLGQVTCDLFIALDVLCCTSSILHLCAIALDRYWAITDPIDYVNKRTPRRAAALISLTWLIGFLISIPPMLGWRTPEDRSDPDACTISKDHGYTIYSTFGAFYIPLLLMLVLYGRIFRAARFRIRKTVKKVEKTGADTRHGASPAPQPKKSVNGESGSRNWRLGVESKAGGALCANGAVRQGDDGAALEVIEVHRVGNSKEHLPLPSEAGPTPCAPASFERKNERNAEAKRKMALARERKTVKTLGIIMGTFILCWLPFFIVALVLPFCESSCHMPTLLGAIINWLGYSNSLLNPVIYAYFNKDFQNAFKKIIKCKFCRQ
Summary of the method: as §1

[11] = target: T9, 5-HT2A receptor (Rattus norvegicus, UniProt P14842); assay: cell-based
T9 construct: Eight strips of tissue (0.5 cm long) were cut. and were mounted in 10 ml organ baths; tissue Charles River Laboratories; host or cells: rat aorta strips, endothelium removed
Summary of the method: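 Agonist EC50 and antagonist pKB or pA2 values come from curves fitted by Parker–Waud and from EC50 concentration-ratios with versus without antagonist. Tissue: rat aorta strips, endothelium removed, 37° C Krebs pH 7.4 with 95% O2/5% CO2, 2 g tension; response as % of 5-HT maximum.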

T3 sequence (P20309 whole entry): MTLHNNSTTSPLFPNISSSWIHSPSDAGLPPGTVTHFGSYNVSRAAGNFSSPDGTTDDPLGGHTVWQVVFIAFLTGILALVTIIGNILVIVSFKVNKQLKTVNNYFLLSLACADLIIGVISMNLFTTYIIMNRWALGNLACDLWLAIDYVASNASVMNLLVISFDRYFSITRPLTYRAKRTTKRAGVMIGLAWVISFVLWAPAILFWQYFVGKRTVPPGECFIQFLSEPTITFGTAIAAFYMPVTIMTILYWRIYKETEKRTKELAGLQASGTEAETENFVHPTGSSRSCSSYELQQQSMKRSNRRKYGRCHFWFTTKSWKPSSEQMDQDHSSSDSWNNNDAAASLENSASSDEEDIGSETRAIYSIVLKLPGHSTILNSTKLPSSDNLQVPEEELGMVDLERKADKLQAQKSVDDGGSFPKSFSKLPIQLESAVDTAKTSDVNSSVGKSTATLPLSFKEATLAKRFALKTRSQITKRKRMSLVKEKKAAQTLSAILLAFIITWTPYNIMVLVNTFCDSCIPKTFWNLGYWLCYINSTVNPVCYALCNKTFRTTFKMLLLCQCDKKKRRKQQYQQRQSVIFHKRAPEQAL
T9 sequence (P14842 whole entry): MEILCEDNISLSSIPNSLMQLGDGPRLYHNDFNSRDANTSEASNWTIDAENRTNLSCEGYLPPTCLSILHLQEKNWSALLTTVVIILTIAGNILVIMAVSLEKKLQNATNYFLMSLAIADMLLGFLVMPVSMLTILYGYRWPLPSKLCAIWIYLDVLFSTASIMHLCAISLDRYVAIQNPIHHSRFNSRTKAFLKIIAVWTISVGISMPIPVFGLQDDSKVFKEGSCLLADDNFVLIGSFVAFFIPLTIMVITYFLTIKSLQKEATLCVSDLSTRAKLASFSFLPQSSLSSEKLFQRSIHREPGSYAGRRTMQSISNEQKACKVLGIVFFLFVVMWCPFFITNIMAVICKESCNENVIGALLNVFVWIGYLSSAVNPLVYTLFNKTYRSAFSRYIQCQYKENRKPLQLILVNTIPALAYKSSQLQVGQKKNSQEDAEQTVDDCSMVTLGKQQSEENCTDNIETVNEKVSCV
T2 sequence (P34969 whole entry): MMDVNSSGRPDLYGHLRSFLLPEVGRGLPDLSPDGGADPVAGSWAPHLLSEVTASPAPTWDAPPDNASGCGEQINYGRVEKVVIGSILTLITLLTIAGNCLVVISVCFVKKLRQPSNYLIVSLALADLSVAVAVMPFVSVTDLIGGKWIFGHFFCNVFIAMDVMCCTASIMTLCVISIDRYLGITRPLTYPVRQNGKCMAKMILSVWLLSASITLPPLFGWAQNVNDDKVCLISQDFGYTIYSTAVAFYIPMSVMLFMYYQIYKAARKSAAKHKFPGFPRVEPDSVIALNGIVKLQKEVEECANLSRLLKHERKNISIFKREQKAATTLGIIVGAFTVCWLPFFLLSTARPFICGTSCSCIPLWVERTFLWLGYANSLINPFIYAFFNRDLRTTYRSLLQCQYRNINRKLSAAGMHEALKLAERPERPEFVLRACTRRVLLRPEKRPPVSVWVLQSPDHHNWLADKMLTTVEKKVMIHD
T4 sequence (P14416 whole entry): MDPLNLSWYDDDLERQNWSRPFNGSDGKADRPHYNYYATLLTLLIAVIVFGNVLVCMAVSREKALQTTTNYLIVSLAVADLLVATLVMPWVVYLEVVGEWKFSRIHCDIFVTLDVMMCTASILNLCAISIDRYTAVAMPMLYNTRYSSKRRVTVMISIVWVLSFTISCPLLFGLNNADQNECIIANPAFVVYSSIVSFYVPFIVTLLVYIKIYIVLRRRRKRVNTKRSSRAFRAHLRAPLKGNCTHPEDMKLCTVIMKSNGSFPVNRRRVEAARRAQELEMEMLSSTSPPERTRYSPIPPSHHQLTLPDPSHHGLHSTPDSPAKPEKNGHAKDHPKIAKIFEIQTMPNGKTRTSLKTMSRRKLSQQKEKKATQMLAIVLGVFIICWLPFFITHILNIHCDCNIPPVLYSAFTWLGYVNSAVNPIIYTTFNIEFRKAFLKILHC
T6 sequence (P14416 1-414 isoform P14416-2): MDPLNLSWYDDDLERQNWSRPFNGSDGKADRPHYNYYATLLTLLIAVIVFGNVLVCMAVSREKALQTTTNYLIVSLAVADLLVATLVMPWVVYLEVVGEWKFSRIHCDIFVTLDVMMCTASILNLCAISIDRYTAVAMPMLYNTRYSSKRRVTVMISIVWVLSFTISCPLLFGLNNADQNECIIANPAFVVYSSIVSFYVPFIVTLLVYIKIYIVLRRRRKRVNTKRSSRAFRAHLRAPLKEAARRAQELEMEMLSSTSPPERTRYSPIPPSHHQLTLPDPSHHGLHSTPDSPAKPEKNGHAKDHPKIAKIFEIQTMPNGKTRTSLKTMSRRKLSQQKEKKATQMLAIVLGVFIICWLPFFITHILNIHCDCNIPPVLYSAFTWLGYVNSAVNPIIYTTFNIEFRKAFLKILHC
T1 sequence (P35367 whole entry): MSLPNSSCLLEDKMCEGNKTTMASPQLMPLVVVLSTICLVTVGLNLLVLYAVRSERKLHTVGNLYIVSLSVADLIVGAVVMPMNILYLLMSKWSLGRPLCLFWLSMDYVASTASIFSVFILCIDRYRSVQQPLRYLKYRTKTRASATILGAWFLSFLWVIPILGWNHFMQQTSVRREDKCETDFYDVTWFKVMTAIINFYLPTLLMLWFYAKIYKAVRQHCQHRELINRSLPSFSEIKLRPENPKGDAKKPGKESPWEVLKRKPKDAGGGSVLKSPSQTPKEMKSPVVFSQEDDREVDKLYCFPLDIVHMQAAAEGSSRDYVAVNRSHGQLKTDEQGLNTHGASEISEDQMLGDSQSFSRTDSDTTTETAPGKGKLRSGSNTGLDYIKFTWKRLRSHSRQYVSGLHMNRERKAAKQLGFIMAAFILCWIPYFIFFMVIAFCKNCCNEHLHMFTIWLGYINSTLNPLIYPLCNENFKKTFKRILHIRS

SMILES	locomotor activity in rat (open field) [1]	catalepsy [2]	Ki [3]	Ki [4]	Ki [5]	Ki [6]	Ki [7]	Ki [8]	Ki [9]	Ki [10]	Kb [11]
CN1CCN(C2=Nc3cc(Cl)ccc3Nc3ccccc32)CC1 [clozapine, reference compound]	trend toward sedation	induced catalepsy	–	–	–	–	–	–	–	–	–
O=C(C[C@H]1CN(C2=Nc3cc(Cl)ccc3Oc3ccccc32)CCN1)O[C@@H]1CN2CCC1CC2 [DU, (S)-quinuclidin-3-yl 2-((S)-4-((E)-8-chlorodibenzo[b,f][1,4]oxazepin-11-yl)piperazin-2-yl)acetate]	–	–	100 to 977 nM	3980 to 9770 nM	> 10000 nM	2510 to 9770 nM	5010 to 9770 nM	2510 to 9770 nM	100 to 977 nM	10 to 97.7 nM	> 100 nM
